The subject of assay [1] is Arabidopsis thaliana Col-0 seeds. Briefly: Seed germination assay on ABA medium. The format is in vivo. How it is done: (§1) Arabidopsis thaliana Col-0 and ndr1-1 seeds were surface sterilized with 50% bleach and 0.1% Triton X-100 for 20 min, with shaking, and rinsed five times with sterile distilled water under horizontal laminar flow hood. […] Plates were stratified at 4° C. for 4 days, in the dark, before being transferred to a growth chamber at 20° C., with a 12 h/12 h light/dark cycle and a light intensity of 120 μmol photons m^−2 s^−1.
(§2) During seed germination and dormancy assays, the radicle emergence was scored as germination and obvious cotyledons formation with green color was recorded as green cotyledons, respectively. The experiment was repeated five times, independently.

For assay [2], the system named is Arabidopsis thaliana ndr1-1 seeds. In words: Seed germination assay on ABA medium. The format is in vivo. The settings on record: ndr1 mutant. On the procedure:
as §1, §2

In a further assay the test system is WT Col-0 stomata. In words: ABA-induced stomata closure in epidermal peels. Type of assay: cell-based, Arabidopsis thaliana. The conditions noted are these: WT Col-0 epidermal peels; 10 μM ABA; 1 h; vs mock. How it is done: (§3) Stomata serve an important function in response to water stress, in large part by regulating transpiration rates. As an integral part of water stress, the regulation of stomatal aperture is a mechanism through which ABA-mediated signaling drives the conformational change in the shape of the guard cells, leading to a decrease in aperture size. To determine its putative role in linking ABA and stomata response, the NDR1 function was assayed. Epidermal peels of WT Col-0 and the ndr1 mutant were treated with 10 μM ABA, and after 1 hour, the stomata apertures were measured.

A further assay has as its system ndr1 stomata. In words: ABA-induced stomata closure in epidermal peels. Type of assay: cell-based, Arabidopsis thaliana. The settings on record: 10 μM ABA, 1 h, vs mock. On the procedure: as §3

`CC1=CC(=O)CC(C)(C)[C@@]1(O)/C=C/C(C)=C\C(=O)O` [ABA, abscisic acid]: the “germination rate (radicle emergence)” value in assay [1] (0.5 μM ABA) is 65%; in assay [1] (1.0 μM ABA) it was 36%; in assay [2] (0.5 μM ABA) it was 90%; in assay [2] (1.0 μM ABA), 65%. In addition, the stomata aperture entry in the assay with WT Col-0 stomata is “significant reduction in aperture”; in the assay with ndr1 stomata, “did not show a change in aperture”.

The values above are taken from patent US9644213B2, “Method of enhancing plant drought tolerance by expression of NDR1” (BOARD OF TRUSTEES OF MICHIGAN STATE UNIVERSITY, priority 2012, dated 2017).
